Earlier results as cited in patent US7208487B2, “Compounds, compositions and methods” (Cytokinetics, Incorporated, priority 2002, dated 2007).

Tested on: A549 cells

In the case of `NC(=O)NO` [hydroxyurea], the GI50 is listed as 500000 nM.

In the case of `COc1cccc2c1C(=O)c1c(O)c3c(c(O)c1C2=O)C[C@@](O)(C(=O)CO)C[C@@H]3O[C@H]1C[C@H](N)[C@H](O)[C@H](C)O1` [doxorubicin], the GI50 is listed as 63 nM.

For `O=c1[nH]cc(F)c(=O)[nH]1` [5-fluorouracil], the GI50 is listed as 1000 nM.

In the case of `CC(=O)O[C@H]1C(=O)[C@@]2(C)[C@H]([C@H](OC(=O)c3ccccc3)[C@]3(O)C[C@H](OC(=O)[C@H](O)[C@@H](NC(=O)c4ccccc4)c4ccccc4)C(C)=C1C3(C)C)[C@]1(OC(C)=O)CO[C@@H]1C[C@@H]2O` [paclitaxel], the GI50 is listed as 4 nM.
